# Reference: patent EP3964206A1, “COMPOUNDS FOR THE TREATMENT OF COVID-19” (priority 2020, dated 2022)
# pIC50: −log10 of the molar value. Counter-ions that a name gives are not always drawn.
# System: SARS-CoV-2
# Experiment: microbe, parasite or virus in culture
# Type: cell-based
# Settings: Severe acute respiratory syndrome coronavirus 2, 120 h; for Emax: read-out: Maximum confluence reached (%)
Structure (SMILES),pIC50,Emax [%]
"CC[C@@]1([C@@H]2O[C@@H]([C@H]3O[C@@](O)(COC(=O)Nc4ccccc4)[C@H](C)C[C@@H]3C)C[C@@H]2C)CC[C@H]([C@]2(C)CC[C@]3(C[C@H](O)[C@@H](C)[C@@H]([C@@H](C)[C@@H](OC)[C@H](C)C(=O)O)O3)O2)O1 [Compound 98, 4(S)-[(2S,5R,7S,8R,9S)-2-[(2S,2'R,3'S,5R,5'R)-2-Ethyl-5'-[6(R)-hydroxy-3(S),5(R)-dimethyl-6-(phenylaminocarbonyloxymethyl)tetrahydropyran-2(S)-yl]-3'-methylperhydro-2,2'-bifuran-5-yl]-9-hydroxy-2,8-dimethyl-1,6-dioxaspiro[4.5]dec-7-yl]-3(R)-methoxy-2(S)-methylpentanoic acid sodium salt]",5.50,38.2
"Oc1c(Cl)cc(Cl)cc1Sc1cc(Cl)cc(Cl)c1O [Compound 102, 2,2'-Thio-bis(4,6-dichlorophenol)]",–,31.2
"CN1[C@@H]2CC[C@H]1C[C@@H](OC(=O)c1cc(Cl)cc(Cl)c1)C2 [Compound 36, 3,5-Dichlorobenzoic acid endo-8-methyl-8-azabicyclo[3.2.1]oct-3-yl ester]",4.36,69
"COc1ccc2c(c1)[C@]1(C[C@H]1c1ccc3c(/C=C/c4ccc(CN5C[C@@H](C)O[C@@H](C)C5)cc4)n[nH]c3c1)C(=O)N2 [Compound 33, (1R,2S)-2-[3-[(E)-2-[4-[(cis-2,6-Dimethylmorpholin-4-yl)methyl]phenyl]vinyl]-1H-indazol-6-yl]-5'-methoxyspiro[cyclopropane-1,3'-indol]-2'(1'H)-one (2E)-but-2-enedioate]",–,105
"C[C@@H]1C[C@@H]([C@H](O)CC2CC(=O)NC(=O)C2)C(=O)[C@@H](C)C1 [Compound 58, 4-[2(R)-[(1S,3S,5S)-3,5-Dimethyl-2-oxocyclohexyl]-2-hydroxyethyl]piperidine-2,6-dione]",–,63.7
"Nc1ncnc2c1ncn2[C@@H]1CC[C@@H](O)[C@H]1O [Compound 74, (1R,2S,3R)-9-(2,3-Dihydroxycyclopentyl)adenine]",–,38
"Cn1nc(C(C)(C)C)cc1C(=O)N[C@@H](Cc1cccc(Cl)c1)C(=O)NCC#N [Compound 63, 3-tert-butyl-N-{(1S)-1-(3-chlorobenzyl)-2-[(cyanomethyl)amino]-2-oxoethyl}-1-methyl-1H-pyrazole-5-carboxamide]",–,96.2
"CC1=NN(c2ccc(C)c(C)c2)C(=O)/C1=N\Nc1cccc(-c2cccc(C(=O)O)c2)c1O [Compound 37, 3'-[2(Z)-[1-(3,4-Dimethylphenyl)-3-methyl-5-oxo-4,5-dihydro-1H-pyrazol-4-ylidene]hydrazino]-2'-hydroxybiphenyl-3-carboxylic acid]",4.24,63.2
"CN(C)c1cccc(-c2c3c(=O)n(-c4ccccc4Cl)[nH]c3cc(=O)n2C)c1 [Compound 13, 2-(2-Chlorophenyl)-4-[3-(dimethylamino)phenyl]-5-methyl-1H-pyrazolo[4,3-c]pyridine-3,6(2H,5H)-dione]",5.12,102
"CC(C)C[C@H](NC(=O)CNC(=O)c1cc(Cl)ccc1Cl)B(O)O [Compound 108, 1(R)-[2-(2,5-Dichlorobenzamido)acetamido]-3-methylbutylboronic acid]",3.87,30.8
"CC(C)(C)c1cc(C=C(C#N)C#N)cc(C(C)(C)C)c1O [Compound 66, (3,5-Di-tert-butyl-4-hydroxybenzylidene)malononitrile]",–,47.6
"CC(C)(C)C(=O)C(=Cc1cccc([N+](=O)[O-])c1)n1cncn1 [Compound 76, 4,4-dimethyl-1-(3-nitrophenyl)-2-(1H-1,2,4-triazol-1-yl)-1-penten-3-one]",5.36,50.4
"Cn1cc(-c2ccncc2)c(-c2ccc(OCc3ccc4ccccc4n3)cc2)n1 [Compound 83, 2-[4-[1-Methyl-4-(4-pyridyl)-1H-pyrazol-3-yl]phenoxymethyl]quinoline succinate]",–,36.7
"O=C(c1c2ccccc2cc2ccccc12)N1CCC(N2CCC[C@@H](C(=O)N3CCOCC3)C2)CC1 [Compound 81, 1-[1'-(Anthracen-9-ylcarbonyl)-1,4'-bipiperidin-3(R)-yl]-1-(4-morpholinyl)methanone]",–,51
"CC(=O)[C@]1(O)Cc2c(O)c3c(c(O)c2[C@@H](O[C@H]2C[C@H](N)[C@H](O)[C@H](C)O2)C1)C(=O)c1ccccc1C3=O [Compound 38, (7S,9S)-9-Acetyl-7-[(3-amino-2,3,6-trideoxy-alpha-L-lyxo-hexopyranosyl)oxy]-7,8,9,10-tetrahydro-6,9,11-trihydroxy-5,12-naphthacenedione hydrochloride]",–,92.6
"CC(C)N1CCN(c2ccc(C(=O)c3c(-c4ccc(O)cc4)sc4cc(O)ccc34)cc2)CC1 [Compound 87, 1-[6-Hydroxy-2-(4-hydroxyphenyl)-1-benzothien-3-yl]-1-[4-(4-isopropylpiperazin-1-yl)phenyl]methanone]",–,41
"CCN(CC)CCCCNc1ncc2cc(-c3c(Cl)cccc3Cl)c(NC(=O)NC(C)(C)C)nc2n1 [Compound 107, 1-tert-Butyl-3-[6-(2,6-dichlorophenyl)-2-[4-(diethylamino)butylamino]pyrido[2,3-d]pyrimidin-7-yl]urea]",3.84,34.1
"CC(C)(O)CNc1ncc(-c2ccnc(Nc3ccnc(Cl)c3)n2)c(CC2CC2)n1 [Compound 60, 1-[[2-[(2-chloro-4-pyridinyl)amino]-4'-(cyclopropylmethyl)[4,5'-bipyrimidin]-2'-yl]amino]-2-methyl-2-propanol]",–,45.6
"CCC(C/C=C/c1ccccc1)(c1ccccc1)N(C)CC1CC1 (single isomer, unassigned; (+)) [Compound 89, (+)-N-(Cyclopropylmethyl)-N-[1-ethyl-1,4-diphenyl-3(E)-butenyl]-N-methylamine]",4.95,58.3
"Cc1cccc(Nc2nc(-c3ccncc3)cs2)c1 [Compound 85, N-(3-Methylphenyl)-4-(4-pyridyl)thiazol-2-amine]",–,47.8
